Measurements taken from PubChem BioAssay (NCI).
“And” between values parts separate entries of the source, which are not always exact repeats. Equal values may be shown once.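 Five compound concentrations were applied to cells in 96-well plates for 48 hours; endpoints were derived by simple linear interpolation of the resulting dose-response curve. At the GI50, growth is halved. TGI denotes the concentration required for complete inhibition of growth.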

Test system: MDA-MB-468 breast
Test: DTP human tumour cell line panel, 48 h

## Cc1c(Cn2c(C)nc3c(C(=O)O)cc(N4CCOCC4)cc32)cccc1C(F)(F)F
  GI50: 26700 nM
  TGI: > 100000 nM

## COC[C@H](NC(=O)c1cnc(C)s1)C(=O)N[C@@H](COC)C(=O)N[C@@H](Cc1ccccc1)C(=O)[C@@]1(C)CO1
  GI50: 14800 nM
  TGI: 38100 nM

## COc1ccc(Nc2nc(NCCNc3ccnc4cc(Cl)ccc34)nc(N3CCOCC3)n2)cc1
  GI50: 1620 nM
  TGI: 4030 nM

## COc1ccc(Br)cc1NC(=O)Nc1cccc2c1ccn2Cc1ccnc(N)c1
  GI50: 2850 nM and 4540 nM
  TGI: 12000 nM and > 10000 nM

## CC1(C)N=C(N)N=C(N)N1c1ccc(CNC(=O)Nc2ccc(S(=O)(=O)F)c(Cl)c2)c(Cl)c1
  GI50: 689 nM
  TGI: > 100000 nM

## COc1cnc2c(c1)C(=O)c1c-2n(CCCN2CCCC2)c(=O)c2cc([N+](=O)[O-])ccc12
  GI50: 27.1 nM
  TGI: 1030 nM

## CC1COc2c(N3CCN(C)CC3)c(F)cc3c(=O)c(C(=O)N/N=C/c4cc[nH]c4)cn1c23 (centres undefined)
  GI50: 412 nM
  TGI: 1730 nM

## CN1C(=O)CCC(N2C(=O)c3cccc(NCCOCCOCCNC(=O)c4cc5c(o4)C(=O)c4ccccc4C5=O)c3C2=O)C1=O (centres undefined)
  GI50: 1760 nM
  TGI: 5040 nM

## Nc1ncc(-c2ccc3ncnc(Nc4cccc(Cl)c4)c3c2)cn1
  GI50: 56.5 nM
  TGI: 378 nM

## Cn1ncc(Cl)c1-c1cc(C(=O)N[C@H](CN)Cc2cccc(F)c2)sc1Cl
  GI50: 38.7 nM and 92 nM
  TGI: 582 nM and 1390 nM

## Cc1ccc2c(C(C[N+](=O)[O-])c3ccccc3)c(-c3ccccc3)[nH]c2c1 (centres undefined)
  GI50: 12700 nM
  TGI: > 95000 nM

## CC(=O)O.CN1[CH-]N(Cc2ccc(C#N)cc2)c2ccccc21.[Ag+]
  GI50: 12800 nM
  TGI: 28500 nM

## COc1ccc(-c2ncnc3c2ncn3CC#CCCl)cc1
  GI50: 2370 nM
  TGI: 7290 nM

## CC1=C([Te]c2ccccc2)C(=O)c2ccccc2C1=O
  GI50: 442 nM
  TGI: 2120 nM

## CCOC(=O)c1[nH]c2cc(Cl)ccc2c1[C@@H](C(=O)NC(C)(C)C)N(CC)C(=O)CCCCC#Cc1cccc2c1CN(C1CCC(=O)NC1=O)C2=O (some centres undefined)
  GI50: < 10 nM
  TGI: < 14.2 nM

## COc1cc2nc(N3CCCN(C)CC3)nc(NC3CCN(Cc4ccccc4)CC3)c2cc1OC
  GI50: 1500 nM
  TGI: 3190 nM

## CCC(CC)n1cnc2c(-c3cnc(N)cn3)nc(N3CC4CCC(C3)O4)nc21
  GI50: 189 nM
  TGI: 2810 nM

## Cc1ccc(CNc2ccc3nc(CCC4CCCCC4)[nH]c3c2)cc1
  GI50: 1520 nM
  TGI: 3350 nM

## C(=N\Nc1ncc(-c2cc3cc4c(cc3o2)OCO4)s1)/c1ccco1
  GI50: 2140 nM
  TGI: 7140 nM

## CCCc1nn(C)c2c(=O)[nH]c(-c3cc(S(=O)(=O)N4CCN(C)CC4)ccc3OCC)nc12
  GI50: 35000 nM
  TGI: > 100000 nM

## COc1cc2nc(Nc3cccc(Cl)c3)nc(N)c2cc1OC
  GI50: 4370 nM
  TGI: 17300 nM

## CN(C)c1ccc(/C=N/NC(N)=S)nc1
  GI50: 2210 nM
  TGI: 8410 nM

## Fc1cccc(COc2ccc(Nc3ncnc4onc(-c5ccccc5)c34)cc2)c1
  GI50: 116 nM
  TGI: 2160 nM

## COc1cc(-c2nn(-c3cccc(NC(=O)Nc4ccc(Cl)c(C(F)(F)F)c4)c3)cc2-c2ccncc2)ccc1Cl
  GI50: 833 nM
  TGI: 4420 nM

## COc1ccc(C(C)=C(c2ccc(OCCN3CCCCCC3)cc2)c2ccc(OCCN3CCCCCC3)cc2)cc1
  GI50: 806 nM
  TGI: 3050 nM

## C[C@@H]1C[C@H](N)C[C@H](c2ccncc2NC(=O)c2ccc(F)c(-c3c(F)cccc3F)n2)C1
  GI50: 4160 nM and 2910 nM
  TGI: 18300 nM and > 10000 nM

## NC(=S)N/N=C/c1ccc(OC(=O)COc2cc(Cl)c(Cl)cc2Cl)cn1
  GI50: 2410 nM
  TGI: 8710 nM

## COc1cc(CCC[P+](c2ccccc2)(c2ccccc2)c2ccccc2)c(OC)c2c1OCO2
  GI50: 292 nM
  TGI: 950 nM

## CCOC(=O)C(=Cc1ccc(C#N)cc1)C(=O)OCC
  GI50: 1980 nM
  TGI: 3840 nM

## O=C1c2c(c(=O)[nH]c3ccccc23)[C@H](c2ccccc2)[C@@H]2CCCN12
  GI50: 2920 nM
  TGI: 14300 nM

## O=S(=O)(N=C1C(Cl)=C(Cl)C(=NS(=O)(=O)c2ccccc2)C(Cl)=C1Cl)c1ccccc1
  GI50: 15100 nM
  TGI: 35900 nM

## Cc1c(CN2CCN(C(=O)[C@H](C)O)CC2)sc2c(N3CCOCC3)nc(-c3cnc(N)nc3)nc12
  GI50: 124 nM and 79.3 nM
  TGI: 1140 nM and 456 nM

## C=C(C)[C@@H]1CC[C@]2(CO)CC[C@]3(C)[C@H](CC[C@@H]4[C@@]5(C)CCCNC(C)(C)[C@@H]5CC[C@]43C)[C@@H]12
  GI50: 1660 nM
  TGI: 3380 nM

## Cc1cc2c(F)c(Oc3ncnc(Nc4ccc(N5C[C@@H](C)N[C@@H](C)C5)cc4)c3C#N)cc(F)c2[nH]1
  GI50: 2050 nM
  TGI: 4750 nM

## COc1ccc2c(c1)c(-c1nc(-c3cn(C)c4ccncc34)cs1)cn2C
  GI50: 1620 nM
  TGI: 3200 nM

## CCN1CCN(CCNc2nccc(-c3c(-c4ccc(F)c(O)c4)nc4occn34)n2)S1(=O)=O
  GI50: 4530 nM
  TGI: > 100000 nM

## COC(=O)/C=C1/SC(=Nc2cccc(Cl)c2)N(CCc2c[nH]c3ccc(O)cc23)C1=O
  GI50: 1990 nM
  TGI: 4400 nM
